Measurements published in patent US20220105051A1, “COMPOUNDS FOR INCREASING MHC-I EXPRESSION AND MODULATING HISTONE DEACETYLASE ACTIVITY” (Cava Healthcare Inc., priority 2019, published 2022).
Entries after “also recorded” stand apart in the source; their conditions may differ.

Columns and labels:
[1] = tested on: TAP, MHC class I, and HDACs 8 and 10; assay: mRNA expression in A9 cells (RT-PCR); type: cell-based, murine; conditions: 0.064 μmol
Source text: Methods primarily used: Fluorescence Activated Cell Sorting (FACS), western blot, RealTime-PCR (RT-PCR), Proteome Profiler Mouse Cytokine Array Kit (Panel A).

HDAC6 = target: T1, HDAC6 (Homo sapiens, UniProt Q9UBN7); assay: Individualized HDAC assay, HDAC6; type: biochemical; conditions: purified enzyme, 5 to 0.02 μM
T1 construct: purchased BPS Biosciences
T1 sequence (Q9UBN7 1-1215): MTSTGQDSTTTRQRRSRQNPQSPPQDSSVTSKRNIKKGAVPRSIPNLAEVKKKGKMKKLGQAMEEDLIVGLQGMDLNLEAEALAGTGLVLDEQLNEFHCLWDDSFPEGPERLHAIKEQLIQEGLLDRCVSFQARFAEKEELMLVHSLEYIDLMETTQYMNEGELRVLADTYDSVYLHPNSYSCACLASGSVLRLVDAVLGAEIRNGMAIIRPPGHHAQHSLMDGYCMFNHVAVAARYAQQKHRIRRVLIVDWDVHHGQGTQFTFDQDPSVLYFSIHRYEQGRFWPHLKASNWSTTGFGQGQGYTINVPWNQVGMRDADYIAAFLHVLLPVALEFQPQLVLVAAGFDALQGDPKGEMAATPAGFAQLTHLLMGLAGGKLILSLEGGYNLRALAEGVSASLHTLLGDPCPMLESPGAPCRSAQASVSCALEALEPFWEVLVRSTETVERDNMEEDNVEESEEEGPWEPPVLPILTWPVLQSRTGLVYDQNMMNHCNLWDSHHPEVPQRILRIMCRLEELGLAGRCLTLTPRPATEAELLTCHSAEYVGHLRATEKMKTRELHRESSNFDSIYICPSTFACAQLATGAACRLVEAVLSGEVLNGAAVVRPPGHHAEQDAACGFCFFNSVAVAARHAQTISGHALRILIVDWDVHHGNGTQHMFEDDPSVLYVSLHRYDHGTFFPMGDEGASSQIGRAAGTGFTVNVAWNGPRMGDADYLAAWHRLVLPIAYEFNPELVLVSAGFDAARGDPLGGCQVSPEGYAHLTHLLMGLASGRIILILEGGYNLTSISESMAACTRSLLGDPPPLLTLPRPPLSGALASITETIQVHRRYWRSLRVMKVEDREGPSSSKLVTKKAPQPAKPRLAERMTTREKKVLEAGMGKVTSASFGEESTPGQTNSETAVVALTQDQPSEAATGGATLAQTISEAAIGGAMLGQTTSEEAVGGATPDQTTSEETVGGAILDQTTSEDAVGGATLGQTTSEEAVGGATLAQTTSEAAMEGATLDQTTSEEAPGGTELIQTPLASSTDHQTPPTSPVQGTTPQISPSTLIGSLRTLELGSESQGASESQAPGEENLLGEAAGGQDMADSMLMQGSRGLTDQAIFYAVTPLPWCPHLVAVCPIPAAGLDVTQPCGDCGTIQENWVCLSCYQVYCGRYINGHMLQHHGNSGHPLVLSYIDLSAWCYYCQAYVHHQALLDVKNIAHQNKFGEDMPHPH
Method: The activity of the curcuphenol analogues was assessed with purified HDAC enzymes from all classes I, II, and IV, as well as a select member of HDAC class III (SIRT1). HDACs 1-9 and SIRT1 were evaluated using HDAC Fluorogenic Assay Kits (BPS Biosciences). All assays were completed in black-sided clear-bottom 96 well plates (PerkinElmer), and all treatments were plated in triplicates. Treatment started at 5 μM and was two-fold diluted to a concentration 0.02 μM. The assays were measured using the Synergy HI hybrid reader (BioTek) and Gen5 software (BioTek), excitation was set to 360 nm and detection was measured at 450 nm with a gain of 100. Alternatively HDAC 10 and 11 (BPS Biosciences) were optimized for HDAC concentration using the HDAC-Glo™ I/II Assay and Screening System (Promega). Following optimization each HDAC was run following the Promega protocol in black-sided clear-bottomed 96 well plates in triplicates with same treatments listed above (PerkinElmer). Luminescence was read 30 minutes after HDAC-Glo™I/II reagent was added using the Synergy HI hybrid reader (BioTek) and Gen5 software (Bio-Tek). […] To calculate percent activity, the average of blank wells was subtracted from all treatment groups. The relative mean of activity of the HDAC being measured was determined and all wells that received treatment were divided this average, to give a percentage of activity.
To evaluate the effect of the compounds on specific HDACs, their activity was assessed with purified HDAC enzymes from all classes I, II, and IV, as well as a select member of HDAC class III (SIRT1). HDACs 1-9 and SIRT1 were evaluated using HDAC Fluorogenic Assay Kits (BPS Biosciences) following the manufacturer's recommendations. Compound treatment started at 5 μM and was two-fold diluted to a concentration 0.02 μM. […] The assays were measured using the Synergy HI hybrid reader (BioTek) and Gen5 software (Bio-Tek). […] To calculate the fold change in HDAC activity, the values from each treated well were divided by the relative mean of activity of the specific HDAC being measured.

| SMILES | mRNA expression of HDAC 8 [1] | mRNA expression of HDAC 10 [1] | mRNA expression of MHC class I [1] | mRNA expression of TAP [1] | HDAC6 activity (HDAC6) | HDAC6 activity (HDAC6; listed as PO-3-97-1) |
| --- | --- | --- | --- | --- | --- | --- |
| CC(C)=CCC[C@H](C)c1ccc(C)cc1O [Curcuphenol, curcuphenol] | increased mRNA expression | increased mRNA expression | increased mRNA expression | increased mRNA expression |  |  |
| COc1ccc(C(C)CCC=C(C)C)c(O)c1 (stereo not shown) [P03-97-1] |  |  |  |  | no change in activity; also recorded: unaffected | did not affect the activity |
| CC(C)=CCCCc1ccc(C)cc1O [P02-113] |  |  |  |  | no change in activity; also recorded: did not affect the activity; also recorded: unaffected |  |
